The text below walks through data of article PMC3908613 (Bioscience Reports, 2014).

For one assay, the target named is T1, rSlk (Homo sapiens, UniProt Q9H2G2).
T1 construct: purchased Millipore
As to the kind of experiment: Kinase assay for recombinant Slk. The assay is classed as biochemical. As to conditions: 25 μM ATP, bovine histone H1 substrate.

Another assay relates to BMDC. As to the kind of experiment: Cytokine production by LPS-stimulated BMDC (ELISA). The assay is classed as cell-based, C57BL/6 mice. Here is the method: DCs were generated from the bone marrow or the spleen of C57BL/6 mice as previously described. Briefly, bone marrow cells were cultured for 7 days at 37°C, 5% (v/v) CO2 in complete RPMI medium supplemented with 10 ng/ml recombinant granulocyte-macrophage colony-stimulating factor (GM-CSF; Peprotech). Spleen cells were cultured for 14 days at 37°C, 5% CO2 in complete RPMI containing 10 ng/ml GM-CSF and 1 ng/ml TGFβ (transforming growth factor-β; R&D Systems). NIH3T3 cells (European Cell Culture Collection) were cultured in DMEM (Dulbecco's modified Eagle's medium) supplemented with glutamine, penicillin, streptomycin and 10% (v/v) calf serum (Invitrogen). […] The amounts of TNFα (tumour necrosis factor α), IL6 (interleukin 6) and IL10 in the supernatant were measured using ELISA kits specific for each cytokine (TNFα, IL6; Peprotech, IL10; R&D Systems).

Assay [1] has as its target T2, PLK1 (Mus musculus, UniProt Q07832).
T2 construct: endogenous in cells; host or cells: mouse spleen-derived dendritic cells (SDC), lysate
As to the kind of experiment: Desthiobiotin-ATP probe capture on streptavidin beads, Western blot. The assay is classed as binding, C57BL/6 mice. As to conditions: 10 μM inhibitor, DC lysate. Here is the method: SDC were cultured for at least 14 days in RPMI (without arginine and lysine, custom-made by Biosera) containing 10% dialysed FCS (Hyclone) supplemented with 84 mg/l of L-arginine (Sigma) and 40 mg/l L-lysine (Sigma) for the ‘light’ medium or 84 mg/l of L-arginine ^13C6 or ^13C10 and 40 mg/l L-lysine ^13C6 (Cambridge Isotope Laboratory) for the ‘heavy’ medium. Equal numbers (2×10^7) of ‘light’ or ‘heavy’ labelled SDCs were incubated in RPMI containing 0.5% FCS for 3 h in 15 cm dishes. The cells were lysed in the lysis buffer provided in the kit (Pierce). […] Labelling with the desthiobiotin ATP probe, and precipitation with streptavidin beads were performed according to the manufacturer's instructions (Pierce kinase enrichment kit or ActivX™). Equal amount of streptavidin precipitates were separated by electrophoresis as described above and probed with antibodies against Rsk2, Lok (Bethyl), Slk (Bethyl), PLK1 (Calbiochem), p38, Erk2 and Mst1 (from Cell Signaling).

Another assay concerns DC. In words: Actin cytoskeleton organisation in DC (confocal microscopy). The assay is classed as cell-based, C57BL/6 mice. As to conditions: 4 μM D1870 or 2 μM BIX, 1h30 at 37°C. Here is the method: 2 μMBIXfor1h30at37◦ C. Cells were ﬁxed in 4 % (v/v) paraformalde-hyde for 15 min, permeabilized with 0.1 % Triton for 5 min and stained with phalloidin-Alexa 555 (Invitrogen) and anti-vinculin antibody (Sigma) followed by goat anti-mouse Alexa 488 antibody (invitrogen). Cells were analysed on a Zeiss700 confocal microscope. V inculin (green) and phal-loidin (red). Error bar 10 μm. Images are representative of three inde- […]
© 2014 The Author(s) This is an Open Access ar ticle distributed under the terms of the Creative Commons Attribution Licence (CC-BY) (http://creativecommons.org/licenses/by/3.0/)c which permits unrestricted use, distribution and reproduction in any medium, provided the original work is properly cited.
(1 picture or pasted object on this page, not shown here)

A further assay deals with Rsks. As to conditions: cited from earlier work.
The test system of assay [2] is PLK1. As to conditions: cited from earlier work.
[3] abbreviates: LPS 50 ng/ml, 18 h, increasing concentrations of inhibitor.

T2 sequence (Q07832 whole entry): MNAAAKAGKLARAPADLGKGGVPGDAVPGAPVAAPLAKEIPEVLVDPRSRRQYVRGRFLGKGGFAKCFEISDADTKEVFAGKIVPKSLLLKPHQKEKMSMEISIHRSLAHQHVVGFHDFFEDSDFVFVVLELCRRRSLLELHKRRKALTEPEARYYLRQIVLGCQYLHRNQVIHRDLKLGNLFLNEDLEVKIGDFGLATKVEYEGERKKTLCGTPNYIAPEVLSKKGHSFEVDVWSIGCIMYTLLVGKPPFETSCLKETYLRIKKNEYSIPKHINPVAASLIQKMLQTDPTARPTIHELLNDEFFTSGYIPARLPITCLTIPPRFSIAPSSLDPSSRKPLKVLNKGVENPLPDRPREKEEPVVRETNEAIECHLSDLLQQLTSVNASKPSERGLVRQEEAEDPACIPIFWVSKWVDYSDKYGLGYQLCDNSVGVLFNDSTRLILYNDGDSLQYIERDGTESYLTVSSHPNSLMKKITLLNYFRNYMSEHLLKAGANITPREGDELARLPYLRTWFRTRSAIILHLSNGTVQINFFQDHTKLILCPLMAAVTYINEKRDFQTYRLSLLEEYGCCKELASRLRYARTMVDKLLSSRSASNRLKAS
T1 sequence (Q9H2G2 whole entry): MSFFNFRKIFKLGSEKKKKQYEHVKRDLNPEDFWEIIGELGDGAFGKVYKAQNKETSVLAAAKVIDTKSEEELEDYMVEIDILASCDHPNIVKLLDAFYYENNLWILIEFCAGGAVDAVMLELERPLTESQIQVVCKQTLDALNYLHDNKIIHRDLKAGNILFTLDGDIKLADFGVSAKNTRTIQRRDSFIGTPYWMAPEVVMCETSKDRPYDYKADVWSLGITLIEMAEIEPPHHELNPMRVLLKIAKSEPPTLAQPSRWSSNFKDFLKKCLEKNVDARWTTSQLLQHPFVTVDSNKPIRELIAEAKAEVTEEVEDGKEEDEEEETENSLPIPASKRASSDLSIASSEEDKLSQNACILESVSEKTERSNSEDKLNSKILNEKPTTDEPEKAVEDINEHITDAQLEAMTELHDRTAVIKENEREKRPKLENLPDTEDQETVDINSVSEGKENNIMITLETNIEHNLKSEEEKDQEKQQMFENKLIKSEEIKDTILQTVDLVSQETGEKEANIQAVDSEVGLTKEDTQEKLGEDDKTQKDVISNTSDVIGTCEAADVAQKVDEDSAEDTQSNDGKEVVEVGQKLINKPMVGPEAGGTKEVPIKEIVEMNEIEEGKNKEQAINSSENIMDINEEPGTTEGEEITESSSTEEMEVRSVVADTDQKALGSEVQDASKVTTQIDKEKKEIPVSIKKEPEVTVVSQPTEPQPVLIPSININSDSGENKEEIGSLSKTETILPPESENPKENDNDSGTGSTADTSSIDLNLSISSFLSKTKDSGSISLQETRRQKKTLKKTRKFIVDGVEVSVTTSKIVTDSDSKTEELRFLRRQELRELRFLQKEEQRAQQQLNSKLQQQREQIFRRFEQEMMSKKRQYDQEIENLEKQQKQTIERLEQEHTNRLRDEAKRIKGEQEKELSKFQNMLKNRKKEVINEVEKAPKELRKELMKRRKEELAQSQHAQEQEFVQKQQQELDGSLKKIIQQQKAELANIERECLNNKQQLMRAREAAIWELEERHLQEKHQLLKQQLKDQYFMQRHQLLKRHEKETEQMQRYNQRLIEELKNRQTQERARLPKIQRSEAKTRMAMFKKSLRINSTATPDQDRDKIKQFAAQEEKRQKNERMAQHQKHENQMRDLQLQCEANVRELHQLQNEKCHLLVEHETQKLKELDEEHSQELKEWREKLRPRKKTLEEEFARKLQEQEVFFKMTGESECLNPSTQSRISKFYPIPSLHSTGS

Consider `CC(C)CCN1c2nc(Nc3cc(F)c(O)c(F)c3)ncc2N(C)C(=O)C1C` (stereo not drawn) [D1870, BI-D1870], for which the half-inhibitory concentration (IC50) at rSlk was 250 nM. In the assay with BMDC (setting [3]), the IL6 secretion entry is “dose-dependent inhibition”, the IL10 secretion result is listed as “dose-dependent inhibition” and the TNFα production entry is reported as “not by D1870”. In addition, in the assay on BMDC (after 1 or 3 h of LPS stimulation, data not shown), the “mRNA levels of IL6 and IL10” value is recorded as “rapidly inhibited”. Besides, the “Recovery of PLK1 on streptavidin beads” value at PLK1 [1] is “blocked”. The “morphological changes in resting DC (cell spreading, focal adhesion, loss of podosomes)” value with DC is “induced morphological changes”. The IC50 with Rsks is 10 to 30 nM. Besides, in the assay on PLK1 [2], the IC50 is […].
